Results on five compounds are retold here after US8501734B2, “Medical intervention in haematological cancers” (Oncotyrol-Center for Personalized Cancer Medicine GmbH …, priority 2008, dated 2013).

One experiment concerns U266 cells. Put plainly: Annexin V/PI apoptosis assay (FACS), U266 cells. Also: key: 0 for no; + for low; ++: + indicates the range of apoptosis induction; +++: + indicates the range of apoptosis induction; ++++ for very strong apoptosis induction. Format: cell-based. The arrangement: apoptosis induction: unit not given here. The protocol:
(§1) After treatment adherent cells were trypsinized (as described before), and resuspended in corresponding full medium. Suspension cells or trypsinized adherent cells, supernatant and washing solution (1×PBS from washing before trypsinization) were pooled and then spun down (300 g for 3 min) washed in 2 ml and resuspended in 1000 of annexin V binding buffer and mixed with 2 μg/ml annexin V-Allophycocyanin (APC) (BD-Pharmingen, San Diego, Calif., USA) and 50 ng/ml of propidium iodide (PI; Sigma Aldrich). At least 10.000 cells were measured per sample using a Becton Dickinson FACSCalibur flow Cytometer (San Jose, Calif., USA). Percentage of Annexin V negative and PI negative cells were depicted in the figures. For the analysis of the pro-apoptotic activity of Imiquimod® in primary MM cells and non-malignant BMMCs, 5×10^5 cells BMMCs cells were treated with or without 40 μg/ml Imiquimod® for the indicated time periods. Cells were then harvested and washed twice with PBS. Detection of apoptotic cells was performed using the annexin V/PI assay according to manufacturers' instruction. Briefly, BMMCs were stained with a mixture of annexin V/FITC (Alexis Coorp., Laeufelfingen, Switzerland), propidium iodide (Sigma), anti-CD38-PE and anti-CD45-PC5 for 15 min at room temperature and immediately analyzed by flow cytometry. The percentages of viable cells (i.e. cells negative for annexin V/FITC and PI) within the MM (CD38^posCD45^low/absent) and non-MM fraction (CD38^neg/CD45^pos) were determined by flow cytometry.
(§2) Adherent cells were grown in 24-well plates to confluence and treated with 40 μg/ml Imiquimod® for 24 h. Cells were then trypsinized, suspended in full medium, stained for AnnexinV/PI and apoptosis was measured as described before. Suspension cells (250.000) were treated with 40 μg/ml Imiquimod® for 24 h, stained for Annexin/PI and apoptosis was measured as described above (Annexin V/Propidium Iodide apoptosis Assay).
(§3) OPM-2 and U266 cells (2.5×10^5 in 500 μl) were treated with either Imiquimod® alone (10 μg/500 μl), various inhibitors/drugs alone or with the combination of Imiquimod® and inhibitors for 24 or 48 h. In the controls the solvent of the drug has been added in appropriate amounts. Cells were then AnnexinV/PI stained and apoptosis measured as described before.

For the next experiment, the system named is OPM2 cells. Description: Annexin V/PI apoptosis assay (FACS), OPM2 cells. As to conditions: OPM2 cells. In kind it is cell-based. The arrangement: apoptosis induction: unit not given here. The protocol:
as §1
Cells were cultured as described before and, treated with 40 μg/ml Imiquimod® or Gardiquimod® for 24 h, and apoptosis was assayed by AnnexinV/PI staining and FACS analysis.
as §2, §3

Setting [1] is: 24 h, Imi 20 μg/ml + drug 10 μM.
The mark [2] stands for this setting: 24 h, Imi 20 μg/ml + drug 20 μM.
Setting [3] is: 24 h, Imi 20 μg/ml + drug 50 μM.
Setting [4] is: 48 h, Imi 20 μg/ml + drug 10 μM.
[5] abbreviates: 48 h, Imi 20 μg/ml + drug 20 μM.
[6] abbreviates: 48 h, Imi 20 μg/ml + drug 50 μM.
Where [7] appears, read: 24 h, Imi 20 μg/ml + drug 100 μM.
The mark [8] stands for this setting: 48 h, Imi 20 μg/ml + drug 100 μM.
[9] abbreviates: 24 h, Imi 20 μg/ml + drug 1 ng/ml.
[10] abbreviates: 24 h, Imi 20 μg/ml + drug 10 ng/ml.
[11] abbreviates: 24 h, Imi 20 μg/ml + drug 50 ng/ml.
Where [12] appears, read: 48 h, Imi 20 μg/ml + drug 1 ng/ml.
Where [13] appears, read: 48 h, Imi 20 μg/ml + drug 10 ng/ml.
[14] abbreviates: 48 h, Imi 20 μg/ml + drug 50 ng/ml.

As to `N[C@@H](Cc1ccc(N(CCCl)CCCl)cc1)C(=O)O` [Melphalan], the apoptosis induction result in the experiment on U266 cells (setting [1]) is listed as “+”; with U266 cells (setting [2]), “++”; in the experiment with U266 cells (setting [3]) it was “+++”; in the experiment with U266 cells (24 h, drug alone 10 μM), “+”; with U266 cells (24 h, drug alone 20 μM) it was “+”; in the experiment on U266 cells (24 h, drug alone 50 μM) it was “++”. The apoptosis induction entry in the experiment on U266 cells (setting [4]) is given as “++”; with U266 cells (setting [5]) it was “++”; in the experiment on U266 cells (setting [6]), “+++”; with U266 cells (48 h, drug alone 10 μM), “+”; in the experiment on U266 cells (48 h, drug alone 20 μM), “+”; with U266 cells (48 h, drug alone 50 μM) it was “+++”. The apoptosis induction result in the experiment on OPM2 cells (setting [1]) is “+”; with OPM2 cells (setting [2]), “++”; in the experiment on OPM2 cells (setting [3]), “++”; with OPM2 cells (24 h, drug alone 10 μM) it was “+”; with OPM2 cells (24 h, drug alone 20 μM), “+”; in the experiment on OPM2 cells (24 h, drug alone 50 μM), “++”. Moreover, the apoptosis induction result is reported as “++” with OPM2 cells (setting [4]); “++++” in the experiment on OPM2 cells (setting [5]); “++++” with OPM2 cells (setting [6]); “nearly complete apoptosis induction in all cells” in the experiment with OPM2 cells (48 h, drug 20 μM and 50 μM + Imiquimod 20 μg/ml); “+” with OPM2 cells (48 h, drug alone 10 μM); “++” in the experiment on OPM2 cells (48 h, drug alone 20 μM). Further, in the experiment on OPM2 cells (48 h, drug alone 50 μM), the apoptosis induction entry is listed as “+++”.

In the case of `CCNCc1nc2c(N)nc3ccccc3c2n1CC(C)(C)O` [Gardiquimod, 1-(4-Amino-2-ethylaminomethylimidazo[4,5-c]quinolin-1-yl)-2-methylpropan-2-ol], the “apoptosis induction compared with Imiquimod” value with OPM2 cells (40 μg/ml, 24 h) is “comparable, though slightly lower extend”.

`CNC(=O)c1cc(Oc2ccc(NC(=O)Nc3ccc(Cl)c(C(F)(F)F)c3)cc2)ccn1` [Sorafenib]: the apoptosis induction was 0 in the experiment with U266 cells (24 h, Imi 20 μg/ml + drug 1 μM); “+” with U266 cells (setting [1]); “+++” with U266 cells (setting [3]); 0 in the experiment with U266 cells (24 h, drug alone 1 μM); 0 in the experiment on U266 cells (24 h, drug alone 10 μM); “+++” with U266 cells (24 h, drug alone 50 μM). The apoptosis induction result is “+” in the experiment on U266 cells (48 h, Imi 20 μg/ml + drug 1 μM); “++” with U266 cells (setting [4]); “+++” in the experiment with U266 cells (setting [6]); “+” in the experiment on U266 cells (48 h, drug alone 1 μM); “+” in the experiment on U266 cells (48 h, drug alone 10 μM); “+++” in the experiment with U266 cells (48 h, drug alone 50 μM). The apoptosis induction result in the experiment on OPM2 cells (24 h, Imi 20 μg/ml + drug 1 μM) is given as “+”; in the experiment on OPM2 cells (setting [1]), “+”; with OPM2 cells (setting [3]), “++++”; with OPM2 cells (24 h, drug alone 1 μM), 0; in the experiment with OPM2 cells (24 h, drug alone 10 μM), “+”; in the experiment with OPM2 cells (24 h, drug alone 50 μM) it was “++++”. The apoptosis induction entry is reported as “++” in the experiment with OPM2 cells (48 h, Imi 20 μg/ml + drug 1 μM); “++++” with OPM2 cells (setting [4]); “++++” in the experiment on OPM2 cells (setting [6]); 0 in the experiment with OPM2 cells (48 h, drug alone 1 μM); “++” with OPM2 cells (48 h, drug alone 10 μM); “++++” in the experiment on OPM2 cells (48 h, drug alone 50 μM). The cells in apoptosis in the experiment on OPM2 cells (48 h, 10 μM drug + Imiquimod 20 μg/ml) is given as around 100%. Also, in the experiment on OPM2 cells (drug alone 50 μM), the cell killing entry is “completely killed cells”.

For the compound `O=C1CCC(N2C(=O)c3ccccc3C2=O)C(=O)N1` (stereo not shown) [Thalidomide], the apoptosis induction result in the experiment with U266 cells (setting [1]) was “+”; with U266 cells (setting [7]) it was “+”; with U266 cells (24 h, Imi 20 μg/ml + drug 1 mM), “+”; in the experiment on U266 cells (24 h, drug alone 10 μM) it was 0; with U266 cells (24 h, drug alone 100 μM), 0; with U266 cells (24 h, drug alone 1 mM), “+”. The apoptosis induction result in the experiment on U266 cells (setting [4]) is reported as “+”; with U266 cells (setting [8]) it was “+”; with U266 cells (48 h, Imi 20 μg/ml + drug 1 mM), “+”; with U266 cells (48 h, drug alone 10 μM), 0; with U266 cells (48 h, drug alone 100 μM), 0; with U266 cells (48 h, drug alone 1 mM), “+”. Further, the apoptosis induction result is reported as “+” with OPM2 cells (setting [1]); “+” with OPM2 cells (setting [7]); “+” with OPM2 cells (24 h, Imi 20 μg/ml + drug 1 mM); 0 in the experiment with OPM2 cells (24 h, drug alone 10 μM); 0 with OPM2 cells (24 h, drug alone 100 μM); 0 with OPM2 cells (24 h, drug alone 1 mM). Moreover, the apoptosis induction entry with OPM2 cells (setting [4]) was “++”; in the experiment with OPM2 cells (setting [8]), “++”; in the experiment with OPM2 cells (48 h, Imi 20 μg/ml + drug 1 mM), “+++”; with OPM2 cells (48 h, drug alone 10 μM) it was 0; in the experiment with OPM2 cells (48 h, drug alone 100 μM), 0; with OPM2 cells (48 h, drug alone 1 mM) it was 0.

As to `CC(C)C[C@H](NC(=O)[C@H](Cc1ccccc1)NC(=O)c1cnccn1)B(O)O` [Velcade], the apoptosis induction result in the experiment on U266 cells (setting [9]) is recorded as “+”; in the experiment with U266 cells (setting [10]) it was “+”; with U266 cells (setting [11]), “++”; with U266 cells (24 h, drug alone 1 ng/ml), 0; in the experiment with U266 cells (24 h, drug alone 10 ng/ml) it was “++”; with U266 cells (24 h, drug alone 50 ng/ml) it was “++”. Also, the apoptosis induction result is “+” with U266 cells (setting [12]); “++” in the experiment on U266 cells (setting [13]); “++” in the experiment on U266 cells (setting [14]); 0 in the experiment with U266 cells (48 h, drug alone 1 ng/ml); “+++” in the experiment with U266 cells (48 h, drug alone 10 ng/ml); “+++” in the experiment on U266 cells (48 h, drug alone 50 ng/ml). Moreover, the apoptosis induction entry with OPM2 cells (setting [9]) is given as “+”; in the experiment with OPM2 cells (setting [10]), “+”; with OPM2 cells (setting [11]), “+”; in the experiment with OPM2 cells (24 h, drug alone 1 ng/ml) it was 0; in the experiment on OPM2 cells (24 h, drug alone 10 ng/ml), “+”; with OPM2 cells (24 h, drug alone 50 ng/ml), “+”. For the same compound, the apoptosis induction entry in the experiment with OPM2 cells (setting [12]) is on record as “++”; in the experiment on OPM2 cells (setting [13]), “++”; with OPM2 cells (setting [14]), “+++”; with OPM2 cells (48 h, drug alone 1 ng/ml) it was 0; in the experiment on OPM2 cells (48 h, drug alone 10 ng/ml), “+++”; in the experiment on OPM2 cells (48 h, drug alone 50 ng/ml), “+++”.
